Results as given in patent publication US9096832B2, “Differentiation of human embryonic stem cells” (LifeScan, Inc., priority 2007, dated 2015).

Assays:
[1] = test system: human embryonic stem cell line H9; test: Formation of pancreatic endocrine cells with gamma-secretase inhibitor L-685,458 (PCR); assay type: cell-based
Protocol: After this time interval, the cells were then treated for six days with combinations of retinoic acid and FGF as outlined in Example 2, then the culture medium was removed and replaced with medium comprising DMEM/F12 with 2% FBS, containing the γ-secretase inhibitors L-685,458 at 10 μM for three days.
Final data were expressed relative to a calibrator sample.

[2] = test system: H9P49 embryonic stem cells; test: Pancreatic endoderm under feeder-free conditions: retinoic acid analogues (real-time PCR); assay type: cell-based, human
Protocol: At day 5, cells were collected for evaluation by FACS and real-time PCR. […] The resulting definitive endoderm cells at day 5 were exposed to the following media conditions to induce pancreatic endoderm formation: culturing in DMEM/F12 media supplemented with 2% FBS and 1 μM all-trans retinoic acid (RA) (Catalog#R2625, Sigma, MO), or 0.1-10 μM AM-580 (4-[(5,6,7,8-Tetrahydro-5,5,8,8-tetramethyl-2-naphthalenyl)carboxamido]benzoic acid, Catalog#A8843, Sigma, MO), or 0.1-1 μM TTNPB (4-[(E)-2-(5,6,7,8-Tetrahydro-5,5,8,8-tetramethyl-2-naphthalenyl)-1-propenyl]benzoic acid Arotinoid acid, Catalog#T3757, Sigma, MO) for 3 days. AM-580 and TTNPB are retinoic acid analogs with affinity for retinoic acid receptors. RA treatment was followed by additional three day treatment in DMEM/F 12 media supplemented with 2% FBS and 20-50 ng/ml bFGF (Catalog#F0291, Sigma, MO).

H9P44 cells = test: Definitive endoderm on MEFs: growth factor combinations in low serum (FACS CXCR4, RT-PCR; Table V); assay type: cell-based, human; conditions: H9P44 on MEF, Day 3, normalized to Group 1 (control)
Protocol: H9P44 cells were plated onto 6 well plates previously coated with mitomycin treated mouse embryonic fibroblasts (MEF). Cells were grown until 70 to 80% confluency in ES cell medium consisting of DMEM/F12 (Invitrogen/GIBCO) supplemented with 20% knockout serum replacement, 100 nM MEM nonessential amino acids, 0.5 mM beta-mercaptoethanol, 2 mM L-glutamine (all from Invitrogen/GIBCO) and 8 ng/ml human basic fibroblast growth factor (bFGF) (R&D Systems).
Growth factors were added to increasing concentration of FBS in a stepwise manner as indicated in the following regimen: • Day 0: 0% FBS in DMEM/F12 • Day 1: 0.5% FBS in DMEM/F12 • Day 2: 2% FBS in DMEM/F12. • Day 3: Cells were harvested for FACS analysis and RT-PCR.
All growth factors were purchased from R&D Systems, MN. A detailed description and concentration of growth factors for each treatment group is shown below. • 1. Control—No growth factor added • 2. […] IL-4 (10 ng/ml) • 10. SDF1a (20 ng/ml) • 11. […] BMP2 (100 ng/ml)+BMP-4 (100 ng.ml)+BMP-6 (100 ng/ml)+BMP-7 (100 ng/ml) • 13.
Cells were harvested on Day 3 of DE protocol treatment. For analysis, an aliquot of treated cells was used for RNA preparation for RT-PCR and the rest of cells used for FACS analysis.
For RT-PCR analysis, cells were analyzed for expression of selected panel of definitive endoderm markers.

H1P54 ES cells = test: Evaluation of various GSK-3B inhibitors in DE formation (real-time PCR); assay type: cell-based, human; conditions: 100 nM for first two days, compared to GSK-3B inhibitor VIII and XII
Protocol: The effectiveness of a number of commercially available GSK-3B inhibitors was evaluated in formation of DE from human embryonic stem cells. The following GSK-3B inhibitors were evaluated at 100 nM: GSK-3B inhibitor VIII (Catalog#361549, Calbiochem, CA), GSK-3B inhibitor IX (Catalog#361550, Calbiochem, CA), GSK-3B inhibitor XI (Catalog#361553, Calbiochem, CA), GSK-3B inhibitor XII (Catalog#361554, Calbiochem, CA). […] Control cultures were treated with low serum plus high dose of AA. FIG. 47, panels a and b depicts the gene expression of definitive endoderm markers at day 5. GSK-3B inhibitor IX and XI were both effective in inducing DE formation as compared to GSK-3B inhibitor VIII and XII.

[3] = test system: H9P46-P48 embryonic stem cells; test: Definitive endoderm on […]: effect of GSK-3B inhibitor IX (FACS CXCR4, PCR); assay type: cell-based, human; conditions: day 5
Protocol: In order to confirm that the effect of Wnt-3a was through the Wnt pathway, a GSK-3 inhibitor was used to activate the downstream targets of Wnt, such as beta catenin. […] FIG. 29, panel a depicts the expression of CXCR4 by FACS at day 5 in the absence of Wnt-3a or GSK-3B inhibitor, b) +20 ng/ml Wnt-3a, c) +1000 nM GSK-3B inhibitor IX, d) +500 nM GSK-3B inhibitor IX, e) +100 nM GSK-3B inhibitor IX, f) +10 nM GSK-3B inhibitor IX, g) +100 nM GSK-3B inhibitor IX for days 1-2, and h) +10 nM GSK-3B inhibitor IX for days 1-2.

[4] = test system: human embryonic stem cell line H1 at passage 55; test: Definitive endoderm on human serum coated plates (real-time PCR); assay type: cell-based; conditions: with activin A, vs activin A only
Protocol: Cultures of the human embryonic stem cell line H1 at passage 55 were grown and differentiated on human serum (Sigma, #H1388, MO) coated plates. 0.5 ml of human serum was added to each well of 6 well tissue culture treated dish, incubated for 1 hr at room temperature, and aspirated before adding human embryonic stem cells. […] These findings parallel our findings for human embryonic stem cells cultured on […]™ or human fibronectin coated plates.

[5] = test system: human embryonic stem cell line H9; conditions: activin A or retinoic acid alone
Protocol: Cultures were harvested and samples of mRNA were collected for analysis.
Cells seeded on 0.1% Matrigel (BD) coated dishes were fixed with 4% paraformaldheyde for 20 min at room temperature. Fixed cells were blocked for 1 h at room temperature with PBS/0.1%BSA/10% normal chick serum /0.5% Triton X-100 and then incubated overnight with primary antibodies in PBS/0.1%BSA/10% normal chick serum at 4° C. After three washes in PBS/0.1% BSA, fluorescent secondary antibodies at a 1:100 dilution in PBS were incubated with cells for 1 h at room temperature to allow binding. Control samples included reactions where the primary antibody was omitted or where the primary antibody was replaced with corresponding matched negative control immunoglobulins at the same concentration as the primary antibodies. […]
Real-time PCR amplification and quantitative analysis: Unless otherwise stated, all reagents were purchased from Applied Biosystems. […] For each primer/probe set, a Ct value was determined as the cycle number at which the fluorescence intensity reached a specific value in the middle of the exponential region of amplification. Relative gene expression levels were calculated using the comparative Ct method. […] The normalized amount of target was calculated as 2-ΔCt, assuming amplification to be 100% efficiency. […]

[6] = test system: H7P44 and H9P46 embryonic stem cells; test: Definitive endoderm on […]: role of Wnt ligands (FACS CXCR4, real-time PCR); assay type: cell-based, human; conditions: low serum+AA+/-Wnt ligands, H7 and H9, five days
Protocol: In some of the cultures 20 ng/ml Wnt-3a (Catalog#1324-WN-002, R&D Systems, MN), 20 ng/ml Wnt-5a (Catalog#654-WN-010, R&D Systems, MN), 25 ng/ml Wnt-7a (Catalog#3008-WN-025, R&D Systems, MN), or 25 ng/ml Wnt-5b (Catalog#3006-WN-025, R&D Systems, MN) was added throughout the five day treatment. FIG. 24 depicts phase contrast images of H9P46 definitive endoderm culture in the presence of high concentration of (a) AA or (b) AA+20 ng/ml Wnt-3a. FIG. 25 depicts the expression of CXCR4 by FACS at day 5 for H7P44, and H9P46 lines cultured on […]™ (1:30 dilution) and exposed to the DE protocol+Wnt-3a (FIG. 25, panels b and d) and −Wnt-3a (FIG. 25, panels a and c).

[7] = test system: pancreatic endoderm cells derived from human embryonic stem cells; test: Passage and expansion of pancreatic endoderm cells in culture with FGF10 (Q-PCR); assay type: cell-based; conditions: 50 ng/ml FGF10, 6 day culture period
Protocol: The low serum DMEM/F12 contained 0% (v/v) fetal bovine serum (FBS) on day 1, 0.5% (v/v) FBS on day two and 2% (v/v) FBS on each day thereafter. After four days of differentiation, the cells were cultured in low serum DMEM/F12 contained 2% (v/v) FBS, 1 μM retinoic acid and 50 ng/ml bFGF for a total of six more days. After the six days of differentiation, the cells were maintained in culture in low serum DMEM/F12 contained 2% (v/v) FBS in the presence of 50 ng/ml FGF10 for a total of 6 days. During the six-day culture period, the pancreatic endoderm cells were passaged twice and cell population-doubling time is about 36 to 48 hours during this 6-day culture. On days 0, 3, and 6 of culture, Q-PCR was used to measure the expression of marker genes indicative of pancreatic endoderm.

Molecule: CC(C)C[C@H](NC(=O)[C@H](Cc1ccccc1)C[C@@H](O)[C@H](Cc1ccccc1)NC(=O)OC(C)(C)C)C(=O)N[C@@H](Cc1ccccc1)C(N)=O [L-685,458]
- NeuroD1 expression ([1]; L-685,458 10 μM): increased further
- expression of Hes-1 ([1]; L-685,458 10 μM): decrease
- time of maximal inhibition of Hes-1 expression ([1]; L-685,458 10 μM): day three post treatment
- Ngn3 expression relative to activin A alone or retinoic acid with FGFs ([1]; L-685,458 10 μM for three days): approximately 50 fold
- increase of insulin expression ([1]; L-685,458 10 μM for three days): 70 fold

Molecule: CC1(C)CCC(C)(C)c2cc(C(=O)Nc3ccc(C(=O)O)cc3)ccc21 [AM-580, 4-[(5,6,7,8-Tetrahydro-5,5,8,8-tetramethyl-2-naphthalenyl)carboxamido]benzoic acid]
- AFP and CDX-2 expression ([2]; 10 μM AM-580): suppressed
- expression of PDX-1 ([2]; 10 μM AM-580): maintaining a high expression

Molecule: Group 9: IL-4 (10 ng/ml)
- CXCR4 relative expression (H9P44 cells): 1.4
- Goosecoid relative expression (H9P44 cells): 0.9
- HNF-3B relative expression (H9P44 cells): 0.89
- Oct-4 relative expression (H9P44 cells): 0.85
- SOX-2 relative expression (H9P44 cells): 1.2
- Sox17 relative expression (H9P44 cells): 1

Molecule: O=C1NC(=O)C(c2cn(CCCO)c3ncccc23)=C1c1cnccn1 [GSK-3B inhibitor XI]
- inducing DE formation (H1P54 ES cells): effective

Molecule: O=C1Nc2cc(Br)ccc2/C1=C1/Nc2ccccc2/C1=N\O [GSK-3B inhibitor IX]
- number of CXCR4 positive cells ([3]; 20 ng/ml Wnt-3a or 100-1000 nM GSK-3B inhibitor): significantly increased
- expression of CXCR4 by FACS ([3]; 10 nm GSK-3B inhibitor): very low
- expression of definitive endoderm markers [4]: Robust expression
- inducing DE formation (H1P54 ES cells): effective

Molecule: CC1=C(/C=C/C(C)=C/C=C/C(C)=C/C(=O)O)C(C)(C)CCC1 [retinoic acid, all-trans retinoic acid]
- foregut endoderm markers, such as CDX-2 and AFP ([2]; 1 μM RA followed by bFGF): robust expression
- pancreatic endoderm markers, such as PDX-1 ([2]; 1 μM RA followed by bFGF): significantly upregulates
- expression of Pdx1 [5]: did not induce

B1: Group 2: Activin A (100 ng/ml) (protein, UniProt P08476 311-426, looked up)
Inhibin beta A chain: GLECDGKVNICCKKQFFVSFKDIGWNDWIIAPSGYHANYCEGECPSHIAGTSGSSLSFHSTVINHYRMRGHSPFANLKSCCVPTKLRPMSMLYYDDGQNIIKKDIQNMIVEECGCS
- CXCR4 relative expression (H9P44 cells): 19.5
- Goosecoid relative expression (H9P44 cells): 2.8
- HNF-3B relative expression (H9P44 cells): 0.64
- Oct-4 relative expression (H9P44 cells): 1.1
- SOX-2 relative expression (H9P44 cells): 0.91
- Sox17 relative expression (H9P44 cells): 45

B2: Wnt-7a: Wnt ligand, Catalog#3008-WN-025, R&D Systems (protein, UniProt O00755 32-349, looked up)
Protein Wnt-7a: LGASIICNKIPGLAPRQRAICQSRPDAIIVIGEGSQMGLDECQFQFRNGRWNCSALGERTVFGKELKVGSREAAFTYAIIAAGVAHAITAACTQGNLSDCGCDKEKQGQYHRDEGWKWGGCSADIRYGIGFAKVFVDAREIKQNARTLMNLHNNEAGRKILEENMKLECKCHGVSGSCTTKTCWTTLPQFRELGYVLKDKYNEAVHVEPVRASRNKRPTFLKIKKPLSYRKPMDTDLVYIEKSPNYCEEDPVTGSVGTQGRACNKTAPQASGCDLMCCGRGYNTHQYARVWQCNCKFHWCCYVKCNTCSERTEMYTCK
- expression of definitive endoderm markers (real-time PCR) [6]: minimal impact

B3: Wnt 5a: Wnt ligand, Catalog#654-WN-010, R&D Systems (protein, UniProt P22725 62-380, looked up)
Protein Wnt-5a: IIGAQPLCSQLAGLSQGQKKLCHLYQDHMQYIGEGAKTGIKECQYQFRHRRWNCSTVDNTSVFGRVMQIGSRETAFTYAVSAAGVVNAMSRACREGELSTCGCSRAARPKDLPRDWLWGGCGDNIDYGYRFAKEFVDARERERIHAKGSYESARILMNLHNNEAGRRTVYNLADVACKCHGVSGSCSLKTCWLQLADFRKVGDALKEKYDSAAAMRLNSRGKLVQVNSRFNSPTTQDLVYIDPSPDYCVRNESTGSLGTQGRLCNKTSEGMDGCELMCCGRGYDQFKTVQTERCHCKFHWCCYVKCKKCTEIVDQFVCK
- expression of definitive endoderm markers (real-time PCR) [6]: minimal impact

B4: Wnt-5b: Wnt ligand, Catalog#3006-WN-025, R&D Systems (protein, UniProt Q9H1J7 18-359, looked up)
Protein Wnt-5b: QLLTDANSWWSLALNPVQRPEMFIIGAQPVCSQLPGLSPGQRKLCQLYQEHMAYIGEGAKTGIKECQHQFRQRRWNCSTADNASVFGRVMQIGSRETAFTHAVSAAGVVNAISRACREGELSTCGCSRTARPKDLPRDWLWGGCGDNVEYGYRFAKEFVDAREREKNFAKGSEEQGRVLMNLQNNEAGRRAVYKMADVACKCHGVSGSCSLKTCWLQLAEFRKVGDRLKEKYDSAAAMRVTRKGRLELVNSRFTQPTPEDLVYVDPSPDYCLRNESTGSLGTQGRLCNKTSEGMDGCELMCCGRGYNQFKSVQVERCHCKFHWCCFVRCKKCTEIVDQYICK
- expression of definitive endoderm markers (real-time PCR) [6]: minimal impact

B5: FGF10: fibroblast growth factor FGF10, 50 ng/ml (protein, UniProt O15520 38-208, looked up)
Fibroblast growth factor 10: QALGQDMVSPEATNSSSSSFSSPSSAGRHVRSYNHLQGDVRWRKLFSFTKYFLKIEKNGKVSGTKKENCPYSILEITSVEIGVVAVKAINSNYYLAMNKKGKLYGSKEFNNDCKLKERIEENGYNTYASFNWQHNGRQMYVALNGKGAPRRGQKTRRKNTSAHFLPMVVHS
- expression of pancreatic endoderm marker Pdx1 [7]: maintained expression
